ChEMBL document CHEMBL3576842, “Selenium-containing chrysin and quercetin derivatives: attractive scaffolds for cancer therapy” (J Med Chem, 2015)
Calls of active or inactive are those of the source. The calls are words filed in the database; no cut-off is given here.

Tests used:
A-375 = test: Cytotoxicity against human A375 cells assessed as cell growth inhibition after 72 hrs by MTT assay; format: functional, cell-based; details: A-375, 72 h
HCT-15 = test: Cytotoxicity against human HCT15 cells assessed as cell growth inhibition after 72 hrs by MTT assay; format: functional, cell-based; details: HCT-15, 72 h
[1] = Cytotoxicity against human BxPC3 cells assessed as cell growth inhibition after 72 hrs by MTT assay; format: functional, cell-based; details: BXPC-3, 72 h
MCF7 [2] = test: Cytotoxicity against human MCF7 cells assessed as cell growth inhibition after 72 hrs by MTT assay; format: functional, cell-based; details: MCF7, 72 h
[3] = Cytotoxicity against human MCF7/ADR cells assessed as cell growth inhibition after 72 hrs by MTT assay; format: functional, cell-based; details: NCI/ADR-RES
A-431 [4] = test: Cytotoxicity against human A431 cells assessed as cell growth inhibition after 72 hrs by MTT assay; format: functional, cell-based; details: A-431, 72 h
A-431 [5] = test: Cytotoxicity against cisplatin-resistant human A431 cells assessed as cell growth inhibition after 72 hrs by MTT assay; format: functional, cell-based; details: A-431, 72 h
2008 = test: Cytotoxicity against human 2008 cells assessed as cell growth inhibition after 72 hrs by MTT assay; format: functional, cell-based; details: Homo sapiens, 2008, 72 h
[6] = Cytotoxicity against human C13 cells assessed as cell growth inhibition after 72 hrs by MTT assay; format: functional, cell-based; details: C13, 72 h
NCI/ADR-RES [7] = test: Resistance factor, ratio of IC50 for human MCF7/ADR cells to IC50 for human MCF7 cells; format: functional
A-431 [8] = test: Resistance factor, ratio of IC50 for cisplatin-resistant human A431 cells to IC50 for human A431 cells; format: functional
C13 [9] = test: Resistance factor, ratio of IC50 for cisplatin-resistant human C13 cells to IC50 for human 2008 cells; format: functional
HEK293 [10] = test: Cytotoxicity against HEK293 cells assessed as cell growth inhibition after 72 hrs by MTT assay; format: cell-based; details: Homo sapiens, HEK293, 72 h
HEK293 [11] = test: Selectivity index, ratio of IC50 for HEK293 cells to IC50 for human A375 cells; format: functional
HEK293 [12] = test: Selectivity index, ratio of IC50 for HEK293 cells to IC50 for human HCT15 cells; format: functional
HEK293 [13] = test: Selectivity index, ratio of IC50 for HEK293 cells to IC50 for human BxPC3 cells; format: functional
HEK293 [14] = test: Selectivity index, ratio of IC50 for HEK293 cells to IC50 for human MCF7 cells; format: functional
NCI/ADR-RES [15] = test: Selectivity index, ratio of IC50 for HEK293 cells to IC50 for human MCF7/ADR cells; format: functional
HEK293 [16] = test: Selectivity index, ratio of IC50 for HEK293 cells to IC50 for human A431 cells; format: functional
HEK293 [17] = test: Selectivity index, ratio of IC50 for HEK293 cells to IC50 for cisplatin-resistant human A431 cells; format: functional
HEK293 [18] = test: Selectivity index, ratio of IC50 for HEK293 cells to IC50 for human 2008 cells; format: functional
C13 [19] = test: Selectivity index, ratio of IC50 for HEK293 cells to IC50 for human C13 cells; format: functional
[20] = Antioxidant activity assessed as DPPH radical scavenging activity after 1 hr; format: physicochemical
[21] = Antioxidant activity assessed as glutathione peroxidase-like activity measured as time required to oxidize dithiothretol by 50% after addition of H2O2 at 3.24 umol; format: physicochemical
MCF7 [22] = test: Anticlonogenic activity against human MCF7 cells assessed as inhibition of clonogenic expansion after 6 hrs; format: functional, cell-based
MCF7 [23] = test: Drug uptake in human MCF7 cells assessed as intracellular Se accumulation at 12.5 to 25 uM after 12 to 24 hrs by GF-AAS analysis; format: ADME, cell-based; details: mcf7, 25 µM
[24] = molecular target: T1, Thioredoxin reductase (Homo sapiens) (UniProt Q16881+Q9NNW7+Q86VQ6); test: Inhibition of thioredoxin reductase activity in human MCF7 cells at 20 uM after 24 hrs by DTNB reduction assay; format: cell-based
[25] = molecular target: T1, Thioredoxin reductase (Homo sapiens); test: Increase in thioredoxin reductase activity in HEK293 cells at 0.0625 to 0.625 uM after 24 hrs by DTNB reduction assay; format: cell-based; parameters: scale not given: the % may be the effect or the level left
[26] = molecular target: T2, Glutathione reductase, mitochondrial (Homo sapiens) (UniProt P00390); test: Effect on glutathione reductase activity in human MCF7 cells using GSSG as substrate at 1.25 to 20 uM after 24 hrs by spectrophotometric analysis; format: cell-based
T2 sequence (whole entry): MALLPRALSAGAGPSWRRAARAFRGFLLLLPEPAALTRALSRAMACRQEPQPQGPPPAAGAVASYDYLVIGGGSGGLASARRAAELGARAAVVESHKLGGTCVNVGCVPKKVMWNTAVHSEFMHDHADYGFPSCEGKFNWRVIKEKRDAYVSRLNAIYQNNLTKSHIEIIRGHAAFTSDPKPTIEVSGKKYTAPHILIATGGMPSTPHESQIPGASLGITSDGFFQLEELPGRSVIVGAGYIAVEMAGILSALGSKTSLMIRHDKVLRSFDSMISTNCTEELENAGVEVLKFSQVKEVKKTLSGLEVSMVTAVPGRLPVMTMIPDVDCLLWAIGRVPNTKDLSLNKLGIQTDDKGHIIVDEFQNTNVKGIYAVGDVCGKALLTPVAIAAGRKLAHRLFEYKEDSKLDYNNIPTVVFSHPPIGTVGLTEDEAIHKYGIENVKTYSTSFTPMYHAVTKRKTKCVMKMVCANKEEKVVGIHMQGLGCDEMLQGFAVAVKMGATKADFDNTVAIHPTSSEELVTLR

MCF7 [27] = test: Effect on glutathione peroxidase activity in human MCF7 cells using tert-butyl hydroperoxide and GSH as substrate at 1.25 to 20 uM after 24 hrs by spectrophotometric analysis; format: cell-based
MCF7 [28] = test: Decrease in total glutathione level in human MCF7 cells at IC50 after 48 hrs by spectrophotometric analysis; format: functional
MCF7 [29] = test: Increase in oxidized glutathione level in human MCF7 cells at IC50 after 48 hrs by spectrophotometric analysis; format: functional
MCF7 [30] = test: Decrease in total sulfhydryl gropus in human MCF7 cells at IC50 after 24 hrs by DTNB reduction assay; format: functional
MCF7 [31] = test: Induction of apoptosis in human MCF7 cells assessed as brightly stained nuclei, chromatin condensation and fragmentation at IC50 after 48 hrs by Hoechst 33258/PI fluorescent staining analysis; format: functional, cell-based
MCF7 [32] = test: Induction of apoptosis in human MCF7 cells assessed as caspase-3 activation using DEVD-AFC as substrate at IC50 after 48 hrs by spectrofluorimeter analysis; format: functional
MCF7 [33] = test: Induction of apoptosis in human MCF7 cells assessed as decrease in mitochondrial membrane potential at IC50 after 48 hrs by flow cytometry; format: functional
MCF7 [34] = test: Increase in oxidant species production in human MCF7 cells at 25 uM by CM-DCFDA based fluorescence plate reader analysis; format: functional, cell-based
[35] = Antioxidant activity assessed as DPPH radical scavenging activity at 1 mM after 1 hr; format: physicochemical; details: 1000 µM

Structure (SMILES) | IC50 (A-375) [µM] | IC50 (HCT-15) [µM] | IC50 [1] [µM] | IC50 (MCF7 [2]) [µM] | IC50 [3] [µM] | IC50 (A-431 [4]) [µM] | IC50 (A-431 [5]) [µM] | IC50 2008 [µM] | IC50 [6] [µM] | Ratio IC50 (NCI/ADR-RES [7]) | Ratio IC50 (A-431 [8]) | Ratio IC50 (C13 [9]) | IC50 (HEK293 [10]) [µM] | Ratio IC50 (HEK293 [11]) | Ratio IC50 (HEK293 [12]) | Ratio IC50 (HEK293 [13]) | Ratio IC50 (HEK293 [14]) | Ratio IC50 (NCI/ADR-RES [15]) | Ratio IC50 (HEK293 [16]) | Ratio IC50 (HEK293 [17]) | further results
O=c1cc(-c2ccccc2)oc2cc(O)cc(O)c12 [CHRYSIN] | 33.2 | 54.4 | 54.3 | 50.3 | 51 | 29.4 | 60.1 | 28.6 | 49.7 | 1 | 2 | 1.7 | 77.5 | 1.9 | 1.9 | 1.9 | 1.9 | 1.9 | 1.9 | 1.9 | Ratio IC50 (HEK293 [18]): 1.9; Ratio IC50 (C13 [19]): 1.9
Oc1cc(O)c2c(=[Se])cc(-c3ccccc3)oc2c1 | 1.09 | 3.17 | 2.31 | 2.25 | 1.96 | 1.61 | 3.18 | 2.87 | 4.04 | 0.9 | 2 | 1.4 | 8.13 | 3.7 | 3.7 | 3.7 | 3.7 | 3.7 | 3.7 | 3.7 | IC50 [20]: 659 µM; Time [21]: 3.62 min; Ratio IC50 (HEK293 [18]): 3.7; Ratio IC50 (C13 [19]): 3.7; inhibition (MCF7 [22]): Active; Drug uptake (MCF7 [23]): Active; inhibition [24]: 75%; Activity [25]: 35%; Activity [26]: inactive; Activity (MCF7 [27]): inactive; inhibition (INH) (MCF7 [28]): 60%; fold change (FC) (MCF7 [29]): 4; inhibition (INH) (MCF7 [30]): 60%; Activity (MCF7 [31]): Active; fold change (FC) (MCF7 [32]): 4; fold change (FC) (MCF7 [33]): 4; Activity (MCF7 [34]): Active
COc1cc(O)c2c(=S)c(OC)c(-c3ccc(OC)c(OC)c3)oc2c1 |  |  |  |  |  |  |  |  |  |  |  |  |  |  |  |  |  |  |  |  | Activity [35]: 18.3%
O=c1c(O)c(-c2ccc(O)c(O)c2)oc2cc(O)cc(O)c12 [QUERCETIN] | 25.1 | 16.4 | 24.1 | 20.9 | 22.2 | 23 | 34.4 | 21.2 | 37.6 | 1.1 | 1.5 | 1.8 | 54.6 | 2.5 | 2.5 | 2.5 | 2.5 | 2.5 | 2.5 | 2.5 | IC50 [20]: 28 µM; Activity [35]: 95.6%; Ratio IC50 (HEK293 [18]): 2.5; Ratio IC50 (C13 [19]): 2.5
